Laboratory results taken from patent US6908734B2, “Sulfated CCR5 peptides for HIV-1 infection” (priority 2000, dated 2005).
Entries after “also recorded” stand apart in the source; their conditions may differ. Where no end group is shown, it is not given here. [ ]: non-standard residue; d: D form. The star is where a group is joined. Biotin = O=C1N[C@H]2[C@H](CS[C@H]2CCCCC(=O)*)N1; sY = N[C@@H](Cc1ccc(OS(=O)(=O)O)cc1)C(=O)O; pY = N[C@@H](Cc1ccc(OP(=O)(O)O)cc1)C(=O)O

Experiments:
[1] = system: gp120JR-FL/CD4-IgG2; test: CCR5 Nt peptide ELISA with gp120JR-FL/CD4-IgG2; type: binding, HIV-1; details: for Avidity for gp120JR-FL/CD4-IgG2 relative to 2-18 (fold lower): ELISA; for Binding of gp120JR-FL/CD4-IgG2 to peptide (ELISA): peptide 1 μg/ml on streptavidin plate
Procedure: Streptavidin-coated ELISA plates (Pierce, Rockford, Ill.) were blocked with D-PBS/5% BSA for 2 hours at room temperature then washed three times with assay buffer (D-PBS/0.5% Tween 20/1% Fetal Bovine Serum/2% BSA). Plates were then contacted with sulfo- or phospho-peptides (1 μg/ml) for 1 hour at room temperature and washed three times with assay buffer. […] The plates were developed using the TMB substrate as described above.

[2] = biological target: T1, gp120JR-FL/CD4-IgG2 binding to the sulfopeptide 2-18 (Homo sapiens, UniProt P51681); test: Competition ELISA: gp120JR-FL/CD4-IgG2 binding to sulfopeptide 2-18; design: species or system HIV-1; details: complex 1 nM, up to supraphysiologic concentrations
T1 construct: a peptide spanning CCR5 residues 2-18 and containing sulfotyrosines in positions 10 and 14; host or cells: peptide synthetic
Procedure: In a competition ELISA, peptides were captured onto the plates as described above. Inhibitor or assay buffer was added for 1 h prior to addition of gp120JR-FL/CD4-IgG2 complex (1 nM) for an additional h at room temperature. The assay was then completed as described above. Direct binding of anti-CCR5 murine MAbs to the peptides was examined as described above except that MAb was substituted for gp120/CD4-IgG2 complex and a goat anti-mouse HRP-coupled antibody was used for detection.

[3] = system: PA10 binding to CCR5; test: Inhibition of anti-CCR5 MAb PA10 binding to L1.2-CCR5 cells; type: cell-based, mouse; details: MAb 50 nM, peptide 100 μM
Procedure: L1.2-CCR5 cells (1×10^6) were incubated with anti-CCR5 MAb (50 nM)±peptide (100 μM). MAb binding was detected using a PE-labeled goat anti-mouse antibody (Caltag Laboratories, Burlingam, Calif.). The m.f.i value was measured by flow cytometry as described (Olson et al. J. Virol. 73:4145, 1999). MAb binding was calculated as above.

[4] = system: gp120JR-FL/CD4-IgG2 complex binding to CCR5; test: Inhibition of gp120JR-FL/CD4-IgG2 complex binding to L1.2-CCR5+ cells (flow cytometry); type: cell-based, HIV-1; details: gp120 100 nM, biotinylated CD4-IgG2 50 nM, different concentrations of peptide
Procedure: A gp120/CD4 complex formed from monomeric gp120 (100 nM) and biotinylated CD4-IgG2 (50 nM) was added to 1×10^6 L1.2-CCR5^+ cells in the presence of different concentrations of peptide (Olson et al. J. Virol. 73:4145, 1999). CD4-IgG2 is tetrameric and therefore binds four molecules of gp120, which increases binding of the complex to CCR5 (Allaway et al. AIDS Res. Hum. Retroviruses 11:533, 1995). The mean fluorescence intensity (m.f.i.) was measured by flow cytometry after addition of phycoerythrin (PE)-labeled streptavidin (Becton Dickinson, San Jose, Calif.). Inhibition of gp120/CCR5 binding was calculated: […].

[5] = system: gp120JR-FL/sCD4; test: BIAcore: gp120JR-FL/sCD4 binding to immobilized biotinylated CCR5 Nt peptide; design: species or system HIV-1; details: protein 100 nM; 400 RU biotinylated peptide on streptavidin chip
Procedure: (§1) Streptavidin-coated sensor chips (BIAcore AB, Sweden) were conditioned with five injections of regeneration solution (1M NaCl, 50 mM NaOH) and equilibrated with HBS-EP buffer (10 mM HEPES, 150 mM NaCl, […], 0.005% polysorbate 20) as recommended by the manufacturer. Biotinylated peptides were then immobilized on the chip by injection of peptide (100 nM) in HBS-EP buffer, followed by an injection of regeneration solution and equilibration with HBS-EP buffer. 400 resonance units (RU) of peptide were bound to the sensor chip surface. Solutions of the following proteins (100 nM) were passed over the sensor chip surface: gp120, sCD4, gp120/sCD4, PA8, PA10 and 2D7. […] Following injection of each solution the chip was regenerated and equilibrated as described above.
Biotinylated peptide was attached to the streptavidin-coated gold surface of a sensor chip and solutions containing different gp120/sCD4 complexes were flowed over the immobilized peptide. Adsorption of the complex due to complex/peptide binding was detected by an increase in surface plasmon resonance signal (RU), which reports changes in the effective refraction index very near the gold surface of the sensor chip (Schuck Ann. Rev. Biophys Biomol Struct 26:541, 1997). […]
Binding of gp120/CD4-IgG2 complex and MAbs to CCR5 Nt-based peptides was measured as previously described. […]

[6] = system: PA10; test: BIAcore: PA10 on immobilized peptide; type: binding, mouse; details: MAb 100 nM
Procedure: as §1

“6-16: CCR5 residues 6-16, sulfotyrosines in positions 10 and 14, GAG spacer, biotinylated lysine (SSPI[sY]DIN[sY]YTGAG-{K(biotin)}; UniProt P51681 6-16, looked up, fragment)” was tested, and the “Avidity for gp120JR-FL/CD4-IgG2 relative to 2-18 (fold lower)” value [1] was “at least ten-fold less avidly”.

In the case of “8-15: CCR5 residues 8-15, sulfotyrosines in positions 10 and 14, GAG spacer, biotinylated lysine (PI[sY]DIN[sY]YGAG-{K(biotin)}; UniProt P51681 8-15, looked up, fragment)”, the “Avidity for gp120JR-FL/CD4-IgG2 relative to 2-18 (fold lower)” value [1] is reported as “at least ten-fold less avidly”.

In the case of “10-18(11A/18A): peptide 10-18 with residues Asp-11 and Glu-18 substituted for alanines ([sY]AIN[sY]YTSA; not fully specified (C-terminus); UniProt P51681 10-18, looked up, variant D11A E18A)”, the “Binding of gp120JR-FL/CD4-IgG2 to peptide (ELISA)” value [1] is reported as “only weakly bound”.

For “10-18: CCR5 residues 10-18 (YDINYYTSE), sulfotyrosines in positions 10 and 14, GAG spacer, biotinylated lysine ([sY]DIN[sY]YTSEGAG-{K(biotin)})”, the “Avidity for gp120JR-FL/CD4-IgG2 relative to 2-18 (fold lower)” value [1] was about 3 fold and the “Binding of gp120JR-FL/CD4-IgG2 to peptide (ELISA)” value [1] was “significant binding; also recorded: avidly bound”.

In the case of MIP-1α: CC-chemokine known to bind CCR5, the “Inhibition of gp120JR-FL/CD4-IgG2 binding to the sulfopeptide 2-18” value (from here on “Inhibition … to the sulfopeptide 2-18”) [2] is reported as “not inhibited”.

RANTES: CC-chemokine known to bind CCR5 was tested, and the “Inhibition … to the sulfopeptide 2-18” value [2] was “not inhibited”.

For “S-3/10/14: tyrosine-sulfated peptide spanning amino acids 2-18 of the CCR5 Nt, sulfo-tyrosines in positions 3, 10 and 14 (D[sY]QVSSPI[sY]DIN[sY]YTSE; UniProt P51681 2-18, looked up, fragment)”, the “Inhibition of PA10 binding to CCR5+ cells” value [3] was “inhibited” and the “Inhibition of gp120JR-FL/CD4-IgG2 binding to CCR5+ cells” value [4] was “inhibited complex binding to the cells in a dose-dependent manner”.

“S-10/14: tyrosine-sulfated peptide spanning amino acids 2-18 of the CCR5 Nt, sulfo-tyrosines in positions 10 and 14 (DYQVSSPI[sY]DIN[sY]YTSE; UniProt P51681 2-18, looked up, fragment)” was tested, and the “Inhibition of gp120JR-FL/CD4-IgG2 binding to CCR5+ cells” value [4] was “inhibited complex binding to the cells in a dose-dependent manner”.

For “S-10: peptide spanning amino acids 2-18 of the CCR5 Nt, sulfo-tyrosine in position 10 (DYQVSSPI[sY]DINYYTSE; UniProt P51681 2-18, looked up, fragment)”, the “Inhibition of gp120JR-FL/CD4-IgG2 binding to CCR5+ cells” value [4] was “no inhibitory activity”.

“S-14: peptide spanning amino acids 2-18 of the CCR5 Nt, sulfo-tyrosine in position 14 (DYQVSSPIYDIN[sY]YTSE; not fully specified; UniProt P51681 2-18, looked up, fragment)” was tested, and the “Inhibition of gp120JR-FL/CD4-IgG2 binding to CCR5+ cells” value [4] was “no inhibitory activity”.

“TS-10/14: peptide spanning amino acids 10-14 of CCR5, two sulfo-tyrosine residues ([sY]DIN[sY])” was tested, and the “Inhibition of gp120JR-FL/CD4-IgG2 binding to CCR5+ cells” value [4] was “did not inhibit”.

“bP-10/14: biotinylated version of P-10/14 with C-terminal GAG spacer preceding a biotinylated lysine; apparently as 2-18(P) (DYQVSSPI[pY]DIN[pY]YTSEGAGK(Biotin))” was tested, and the “Association of gp120JR-FL/sCD4 complex with immobilized peptide (RU)” value [5] was “complete lack of association”.

For “bS-10/14: biotinylated version of S-10/14 with C-terminal GAG spacer preceding a biotinylated lysine; apparently as 2-18 (DYQVSSPI[sY]DIN[sY]YTSEGAGK(Biotin))”, the “Association of PA10 with immobilized peptide (BIAcore)” value [6] was “associate” and the “Association of gp120JR-FL/sCD4 complex with immobilized peptide (RU)” value [5] was “significant increase in RU”.

B1: MIP-1β: CC-chemokine known to bind CCR5 (protein, UniProt P13236 24-92, looked up)
C-C motif chemokine 4: APMGSDPPTACCFSYTARKLPRNFVVDYYETSSLCSQPAVVFQTKRSKQVCADPSESWVQEYVYDLELN
For B1, the “Inhibition … to the sulfopeptide 2-18” value [2] was “not inhibited”.
